Tests used:
Wild-type mice = experiment: Chronic supplementation with vitamin E, renal mass in wild-type mice; type: in vivo, mouse; details: WT mice, 40 mg/kg/day vitamin E orally from 4 weeks, sacrificed at 8 months, mean±SEM, n=5
Protocol: (§1) Chronic supplementation with vitamin E. Wild-type or Hp 0 mice (n=5 in each group) were treated for 7 months with placebo (water) or vitamin E (Merck, racemic alpha-tocopherol acetate) at a concentration of 40 mg/kg/day administered daily in the drinking water from 4 weeks of age.
(§2) Preparation of renal tissue for morphometric and histochemical analysis. Mice were sacrificed with intraperitoneal injection of pentabarbitone sodium. Kidneys were excised and weighed and the half-middle portion was fixed in 4% buffered BP formaldehyde solution (Gadot, Netanya, Israel) and embedded in paraffin. For both the morphometric and histochemical analysis, there were four mice in each of the six groups (wild type, Hp 0, and Hp 2, with and without diabetes).
(§3) Statistical analysis. Values are reported as the mean±SEM. Comparisons between groups were performed using two-way ANOVA under a general linear model, with Hp phenotype as one factor and time, presence of diabetes, or treatment with vitamin E as the second factor. Pairwise comparisons were carried out using the Fisher's protected least significant difference (PLSD) test. A p-value of less than 0.05 was taken as being statistically significant. Statistical analyses were performed using the SPSS statistical software version 11.5 (Chicago, Ill.). […]

Hp 0 mice = experiment: Chronic supplementation with vitamin E, renal hypertrophy in Hp 0 mice; type: in vivo, mouse
Protocol: as §1, §2, §3

For `CC(=O)Oc1c(C)c(C)c2c(c1C)CC[C@@](C)(CCC[C@H](C)CCC[C@H](C)CCCC(C)C)O2` (racemic) [Vitamin E, racemic alpha-tocopherol acetate], the “RM/BM (renal mass normalized for body weight)” value (Wild-type mice) was 11.42 ± 0.98 mg/g, the “RM/BM (renal mass normalized for body weight)” value (Hp 0 mice; 40 mg/kg/day vitamin E orally from 4 weeks, sacrificed at 8 months, mean±SEM, n=5) was 11.01 ± 0.24 mg/g and the “renal mass in Hp 0 animals receiving vitamin E compared to Hp 0 mice who did not receive vitamin E” value (Hp 0 mice; vitamin E for 7 months) was “reduced”.
